22 compounds from patent publication US11390609B2, “Rho-associated protein kinase inhibitor, pharmaceutical composition comprising same, and preparation method and use thereof” (BEIJING TIDE PHARMACEUTICAL CO., LTD., priority 2017, dated 2022) can be followed below.

SMILES strings stand for the structures. Some results are limits rather than exact numbers.

One test deals with ROCK2 (Homo sapiens, UniProt O75116). The test can be described thus: ROCK2 kinase IC50 assay (CISBIO HTRF KinEASE-STK S2 kit). The following applies: incubated at room temperature for 2 hours. The class given is biochemical. How it is done: The kinase IC50 was determined by a commercialized CISBIO kinase detection kit, HTRF KinEASE-STK S2 kit (62ST2PEC). ROCK2 (01-119) employed in the reaction was purchased from Carna Biosciences.
Before the assay, the following working solutions as needed were formulated with corresponding reagents according to the instruction of the kinase detection kit: 1×kinase buffer, 5×STK-52 substrate working solution (1.5 μM) and 5×ATP working solution (1.5 μM), 5×ROCK2 kinase working solution, 4×Streptavidin-XL665 working solution, and 4×STK-Ab-Cryptate 2 detection solution. Then the assay was performed according to the following procedure.
A solution of a compound at a concentration of 10000 nM was prepared with the 1×kinase buffer containing 2.5% DMSO. Gradient dilution of the solution of the compound was performed with the kinase buffer containing DMSO, so as to obtain solutions of a test compound at 9 different concentrations. In addition to wells of test compounds, a positive well (containing all the reagents except the compound) and a negative well (containing all the reagents except the test compound and kinase) were set. Except for the control wells (positive and negative wells), a solution of a test compound (4 μL) was added to each of the reaction wells, and a solution of 2.5% DMSO was added to the control wells. Then the substrate ([…], 2 μL. 5×STK-S2 substrate working solution) was added to each of the reaction wells. The 5×ROCK2 kinase working solution (2 μL, containing 1.4 ng ROCK2 kinase) was added to each of the reaction wells except for the negative well, the volume of which was made up with the 1×kinase buffer (2 μL). The 5×ATP working solution (2 μL) was added to each of the reaction wells, and the mixtures were incubated at room temperature for 2 hours. After the kinase reaction was complete, the 4×Streptavidin-XL665 working solution was added to each of the reaction wells, the solutions were mixed, followed by immediate addition of the 4×STK-Ab-Cryptate 2 detection solution (5 μL), and the mixtures were incubated at room temperature for 1 hour. The fluorescence signal was read on ENVISION (Perkinelmer) (excitation wavelength: 320 nm, and emission wavelength: 665 nm and 615 nm). The inhibitory rate in each well was calculated based on the fluorescence intensity value: ER (Emission Ratio)=(fluorescence intensity at 665 nm/fluorescence intensity at 615 nm); inhibitory rate=(ERpositive−ERtest compound)/(ERpositive−ERnegative)*100%. Curves were plotted and fitted to obtain the median inhibitory concentration (IC50) of each teat compound with the PRISM 5.0 software.

The target in the next test is ROCK1 (Homo sapiens (Human), UniProt Q13464). The experiment in a line: ROCK1 kinase IC50 assay (biological test method similar to the ROCK2 assay). Type of test: biochemical. The procedure, abridged:
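HTRF KinEASE-STK S2 assay with the STK-S2 biotinylated substrate and ATP, at 5× working solutions of 1.5 µM each. Kinase reaction with 9-point compound dilutions ran 2 h at room temperature, followed by 1 h streptavidin-XL665/Cryptate detection. The 665/615 nm ratio was normalised to no-compound and no-kinase wells, and IC50 was obtained by curve fitting.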

Sequence of ROCK1 (Q13464 whole entry, species assumed): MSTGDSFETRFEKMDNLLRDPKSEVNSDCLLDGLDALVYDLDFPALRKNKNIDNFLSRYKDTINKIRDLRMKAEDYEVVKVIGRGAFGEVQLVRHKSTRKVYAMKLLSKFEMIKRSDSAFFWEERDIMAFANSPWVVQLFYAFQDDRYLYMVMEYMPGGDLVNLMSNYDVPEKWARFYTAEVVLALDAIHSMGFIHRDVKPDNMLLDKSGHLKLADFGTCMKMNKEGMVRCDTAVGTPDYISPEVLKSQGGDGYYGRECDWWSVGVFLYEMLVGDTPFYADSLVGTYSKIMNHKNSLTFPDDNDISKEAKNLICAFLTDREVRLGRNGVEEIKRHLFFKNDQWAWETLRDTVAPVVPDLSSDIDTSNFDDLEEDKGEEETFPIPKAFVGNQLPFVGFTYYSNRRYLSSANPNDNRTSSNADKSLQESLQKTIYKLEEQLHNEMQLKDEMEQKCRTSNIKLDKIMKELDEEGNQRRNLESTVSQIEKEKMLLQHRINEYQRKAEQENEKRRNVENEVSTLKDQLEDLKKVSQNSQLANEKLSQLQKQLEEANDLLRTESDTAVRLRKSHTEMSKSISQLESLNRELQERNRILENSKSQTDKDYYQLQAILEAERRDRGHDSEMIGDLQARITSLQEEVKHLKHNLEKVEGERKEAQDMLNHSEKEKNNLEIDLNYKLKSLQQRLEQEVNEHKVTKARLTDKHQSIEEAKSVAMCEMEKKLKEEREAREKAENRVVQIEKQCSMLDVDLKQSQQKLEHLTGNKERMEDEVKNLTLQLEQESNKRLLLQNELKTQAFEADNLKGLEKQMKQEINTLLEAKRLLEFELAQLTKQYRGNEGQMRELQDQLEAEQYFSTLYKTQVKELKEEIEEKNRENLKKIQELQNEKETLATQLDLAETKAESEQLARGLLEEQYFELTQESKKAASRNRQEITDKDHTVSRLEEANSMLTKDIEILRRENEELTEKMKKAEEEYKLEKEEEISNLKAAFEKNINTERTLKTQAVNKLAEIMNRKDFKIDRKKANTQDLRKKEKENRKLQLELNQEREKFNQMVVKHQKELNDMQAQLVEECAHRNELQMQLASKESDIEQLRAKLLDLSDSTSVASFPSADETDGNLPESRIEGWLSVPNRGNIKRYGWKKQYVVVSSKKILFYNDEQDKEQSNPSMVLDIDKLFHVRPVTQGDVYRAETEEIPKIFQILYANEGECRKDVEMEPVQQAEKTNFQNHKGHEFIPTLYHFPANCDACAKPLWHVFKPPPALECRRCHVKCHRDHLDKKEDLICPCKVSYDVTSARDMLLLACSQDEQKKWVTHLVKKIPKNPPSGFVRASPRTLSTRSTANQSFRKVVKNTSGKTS

For `CN(CC(F)(F)F)C(=O)c1cc2ccc(-c3nccc(Nc4ccc(-c5cn[nH]c5)cc4)n3)cc2s1` [TDI01428, 6-(4-((4-(1H-pyrazol-4-yl)phenyl)-amino)-pyrimidin-2-yl)-N-methyl-N-(2,2,2-trifluoroethyl)-benzo[b]-thiophene-2-carboxamide], the values for the IC50 against ROCK2 and against ROCK1 were 69 nM and above 10000 nM, respectively.

As to `CN(CC(F)(F)F)C(=O)c1cc2cc(-c3nccc(Nc4ccc(-c5cn[nH]c5)cc4)n3)ccc2[nH]1` [TDI01429, 5-(4-((4-(1H-pyrazol-4-yl)phenyl)amino)pyrimidin-2-yl)-N-methyl-N-(2,2,2-trifluoroethyl)-1H-indole-2-carboxamide], the IC50 was 99 nM against ROCK2 and above 10000 nM against ROCK1.

With `CC1COCCN1C(=O)c1cc2ccc(-c3nccc(Nc4ccc(-c5cn[nH]c5)cc4)n3)cc2[nH]1` (centres unmarked) [TDI01431, (6-(4-((4-(1H-pyrazol-4-yl)phenyl)amino)pyrimidin-2-yl)-1H-indol-2-yl)(3-methylmorpholino) methanone], the values for the IC50 against ROCK2 and at ROCK1 were 203 nM and 4340 nM, respectively.

As for `O=C(c1cc2ccc(-c3nccc(Nc4ccc(-c5cn[nH]c5)cc4)n3)cc2[nH]1)N1CC(O)C1` [TDI01437, (6-(4-((4-(1H-pyrazol-4-yl)phenyl)amino)pyrimidin-2-yl)-1H-indol-2-yl)(3-hydroxyazetidin-1-yl)methanone], the IC50 at ROCK2 was 247 nM; on ROCK1, above 10000 nM.

Regarding `O=C(c1cc2ccc(-c3nccc(Nc4ccc(-c5cn[nH]c5)cc4)n3)cc2[nH]1)N1CC[C@H](O)C1` [TDI01438, (S)-(6-(4-((4-(1H-pyrazol-4-yl)phenyl)amino)pyrimidin-2-yl)-1H-indol-2-yl)(3-hydroxypyrrolidin-1-yl)methanone], the IC50 against ROCK2 was 402 nM; on ROCK1, above 10000 nM.

With `CC(C)NC(=O)c1cc2ccc(-c3nc(Nc4ccc(-c5cn[nH]c5)cc4)c4sccc4n3)cc2s1` [TDI01439, 6-(4-((4-(1H-pyrazol-4-yl)phenyl)-amino)thieno-[3,2-d]pyrimidin-2-yl)-N-isopropyl-benzo-[b]thiophene-2-carboxamide], the IC50 was 203 nM at ROCK2 and above 10000 nM against ROCK1.

Take `CC1(F)CN(C(=O)c2cc3ccc(-c4nccc(Nc5ccc(-c6cn[nH]c6)cc5)n4)cc3[nH]2)C1` [TDI01441, (6-(4-((4-(1H-pyrazol-4-yl)phenyl)amino)pyrimidin-2-yl)-1H-indol-2-yl)(3-fluoro-3-methylazetidin-1-yl)methanone]: the IC50 at ROCK2 amounted to 181 nM; against ROCK1, 6070 nM.

As to `O=C(c1cc2ccc(-c3nccc(Nc4ccc(-c5cn[nH]c5)cc4)n3)cc2[nH]1)N1CCC(C(F)(F)F)C1` (centres unmarked) [TDI01444, (6-(4-((4-(1H-pyrazol-4-yl)phenyl)amino)pyrimidin-2-yl)-1H-indol-2-yl)(3-(trifluoromethyl)pyrrolidin-1-yl)methanone], the IC50 at ROCK2 came to 32 nM; against ROCK1, 8260 nM.

On to `N#CC1CCN(C(=O)c2cc3ccc(-c4nccc(Nc5ccc(-c6cn[nH]c6)cc5)n4)cc3[nH]2)CC1` [TDI01445, 1-(6-(4-((4-(1H-pyrazol-4-yl)phenyl)amino)pyrimidin-2-yl)-1H-indole-2-carbonyl)piperidine-4-carbonitrile], for which the 50% inhibitory concentration (IC50) against ROCK2 was found to be 64 nM; against ROCK1, 3000 nM.

Consider `N#CC1CCN(C(=O)c2cc3ccc(-c4nccc(Nc5ccc(-c6cn[nH]c6)cc5)n4)cc3[nH]2)C1` (centres unmarked) [TDI01448, 1-(6-(4-((4-(1H-pyrazol-4-yl)phenyl)amino)pyrimidin-2-yl)-1H-indole-2-carbonyl)pyrrolidine-3-carbonitrile], for which the IC50 against ROCK2 amounted to 13 nM; against ROCK1, 3000 nM.

As to `O=C(c1cc2ccc(-c3nc(Nc4ccc(-c5cn[nH]c5)cc4)c4sccc4n3)cc2[nH]1)N1CCOCC1` [TDI01450, (6-(4-((4-(1H-pyrazol-4-yl)phenyl)amino)thieno [3,2-d]pyrimidin-2-yl)-1H-indol-2-yl)(morpholino)methanone], the IC50 against ROCK2 is 453 nM; on ROCK1, above 10000 nM.

Take `O=C(c1cc2ccc(-c3nccc(Nc4ccc(-c5cn[nH]c5)cc4)n3)cc2[nH]1)N1CC(F)C1` [TDI01455, (6-(4-((4-(1H-pyrazol-4-yl)phenyl)amino)pyrimidin-2-yl)-1H-indol-2-yl)(3-fluoroazetidin-1-yl)methanone]: the 50% inhibitory concentration (IC50) against ROCK2 is 29 nM; against ROCK1, above 10000 nM.

In the case of `O=C(NCC(F)(F)F)c1cc2ccc(-c3nccc(Nc4ccc(-c5cn[nH]c5)cc4)n3)cc2s1` [TDI01456, 6-(4-((4-(1H-pyrazol-4-yl)phenyl)-amino)-pyrimidin-2-yl)-N-(2,2,2-trifluoroethyl)-benzo[b]-thiophene-2-carboxamide], the concentration for half-maximal inhibition (IC50) on ROCK2 was 15 nM; at ROCK1 it was above 10000 nM.

For `CC(NC(=O)c1cc2ccc(-c3nccc(Nc4ccc(-c5cn[nH]c5)cc4)n3)cc2n1C)C(F)(F)F` (centres unmarked) [TDI01457, 6-(4-((4-(1H-pyrazol-4-yl)phenyl)amino)pyrimidin-2-yl)-1-methyl-N-(1,1,1-trifluoropropan-2-yl)-1H-indole-2-carboxamide], the IC50 was found to be 395 nM against ROCK2 and 4890 nM against ROCK1.

On to `CC1(C#N)CN(C(=O)c2cc3ccc(-c4nccc(Nc5ccc(-c6cn[nH]c6)cc5)n4)cc3[nH]2)C1` [TDI01461, 1-(6-(4-((4-(1H-pyrazol-4-yl)phenyl)amino)pyrimidin-2-yl)-1H-indole-2-carbonyl)-3-methylazetidine-3-carbonitrile], for which the IC50 against ROCK2 is 140 nM; on ROCK1 it was 4530 nM.

As to `O=C(c1cc2ccc(-c3nccc(Nc4ccc(-c5cn[nH]c5)cc4)n3)cc2[nH]1)N1CCC(F)(F)C1` [TDI01463, (6-(4-((4-(1H-pyrazol-4-yl)phenyl)amino)pyrimidin-2-yl)-1H-indol-2-yl)(3,3-difluoropyrrolidin-1-yl)methanone], the IC50 against ROCK2 is 11 nM; against ROCK1, above 10000 nM.

For the compound `O=C(c1cc2ccc(-c3nccc(Nc4ccc(-c5cn[nH]c5)cc4)n3)cc2[nH]1)N1CCC2(CCN2)CC1` [TDI01464, (6-(4-((4-(1H-pyrazol-4-yl)phenyl)amino)pyrimidin-2-yl)-1H-indol-2-yl)(1,7-diazaspiro[3.5]nonan-7-yl)methanone], the figures for the IC50 at ROCK2 and on ROCK1 were 175 nM and 2280 nM, respectively.

Take `CS(=O)(=O)C1CN(C(=O)c2cc3ccc(-c4nccc(Nc5ccc(-c6cn[nH]c6)cc5)n4)cc3[nH]2)C1` [TDI01465, (6-(4-((4-(1H-pyrazol-4-yl)phenyl)amino)pyrimidin-2-yl)-1H-indol-2-yl)(3-(methylsulfonyl)azetidin-l-yl)methanone]: the IC50 on ROCK2 was 398 nM; against ROCK1, above 10000 nM.

As for `O=C(c1cc2ccc(-c3nc(Nc4ccc(-c5cn[nH]c5)cc4)c4sccc4n3)cc2[nH]1)N1CC(F)(F)C1` [TDI01472, (6-(4-((4-(1H-pyrazol-4-yl)phenyl)amino)thieno [3,2-d]pyrimidin-2-yl)-1H-indol-2-yl)(3,3-difluoroazetidin-1-yl)methanone], the figures for the IC50 against ROCK2 and at ROCK1 were 174 nM and above 10000 nM, respectively.

Turning to `O=C(c1cc2ccc(-c3nccc(Nc4ccc(-c5cn[nH]c5)cc4)n3)cc2[nH]1)N1CCC(F)C1` (centres unmarked) [TDI01473, (6-(4-((4-(1H-pyrazol-4-yl)phenyl)amino)pyrimidin-2-yl)-1H-indol-2-yl)(3-fluoropyrrolidin-1-yl)methanone], the IC50 is 18 nM against ROCK2 and 592 nM on ROCK1.

On to `O=C(c1cc2ccc(-c3nccc(Nc4ccc(-c5cn[nH]c5)cc4)n3)cc2[nH]1)N1C[C@@H](F)[C@@H](F)C1` [TDI01477, (6-(4-((4-(1H-pyrazol-4-yl)phenyl)amino)pyrimidin-2-yl)-1H-indol-2-yl)((3S,4R)-3,4-difluoropyrrolidin-1-yl)methanone], for which the IC50 was found to be 47 nM against ROCK2 and 1130 nM against ROCK1.

With `O=C(c1cc2ccc(-c3nccc(Nc4ccc(-c5cn[nH]c5)cc4)n3)cc2[nH]1)N1CCC(F)(F)CC1` [TDI01485, (6-(4-((4-(1H-pyrazol-4-yl)phenyl)amino)pyrimidin-2-yl)-1H-indol-2-yl)(4,4-difluoropiperidin-1-yl)methanone], the figures for the IC50 against ROCK2 and on ROCK1 were 276 nM and 3990 nM, respectively.
